Source: patent US11116757B2 (priority 2015, dated 2021)

What follows are molecules tested against DCN1-UBC12 interaction (Homo sapiens (Human), UniProt Q96GG9) (assay: biochemical). Conditions: TR-FRET IC50.
Format: binding

DCN1-UBC12 interaction, sequence (Q96GG9 60-248 limits assumed): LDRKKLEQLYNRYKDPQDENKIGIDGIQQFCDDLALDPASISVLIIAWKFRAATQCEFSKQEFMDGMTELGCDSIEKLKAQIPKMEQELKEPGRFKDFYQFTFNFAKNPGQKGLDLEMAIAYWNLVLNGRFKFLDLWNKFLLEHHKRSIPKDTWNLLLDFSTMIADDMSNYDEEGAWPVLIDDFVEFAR

For `CCCC(C)N1CCC(N(Cc2ccccc2)C(=O)Nc2ccc(F)c(C(F)(F)F)c2)CC1` (stereo not shown) [A57], the IC50 was 0.315 µM.

Same assay, conditions: Table 4, commercial compounds; read-out: TR-FRET IC50

Compared with `CCc1ccccc1NC(=O)C1CCN(C(=O)c2ccc(F)cc2)CC1` [C67], `O=C(Nc1cccc(C(F)(F)F)c1)C1CCN(C(=O)c2ccc(F)cc2)CC1` [C2] is lower in IC50: > 75.6 µM for the first, 8.84 µM for the second. The second is the more potent here.

Going from `COc1ccc(C(=O)N2CCC(C(=O)Nc3ccc(F)c(Cl)c3)CC2)cc1` [C16] to `COc1ccc(C(=O)N2CCC(C(=O)Nc3cccc(C(F)(F)F)c3)CC2)cc1` [C1, 1-(4-Methoxybenzoyl)-N-(3-(Trifluoromethyl)Phenyl)Piperidine-4-Carboxamide], the IC50 falls from > 67.6 µM to 8.07 µM. The second is the more potent here.

`COc1ccc(OC)c(NC(=O)C2CCN(C(C)=O)CC2)c1` [C33] and `COc1ccc(NC(=O)C2CCN(C(=O)c3ccccc3C)CC2)c(OC)c1` [C21] cannot be ordered by IC50: > 67.6 µM for the first, > 67.6 µM for the second.

`COc1ccc(NC(=O)C2CCN(C(=O)c3cnn(-c4ccccc4)c3-n3cccc3)CC2)cc1` [C49] and `CCc1cccc(NC(=O)C2CCN(C(=O)c3cnn(-c4ccccc4)c3-n3cccc3)CC2)c1` [C69] cannot be ordered by IC50: > 67.6 µM for the first, > 81.4 µM for the second.

Same assay, conditions: Table 6, commercial compounds; read-out: TR-FRET IC50

First: CCN(CC)CCN(C)C(=O)c1cnn(-c2ncc(C)c(-c3cccs3)n2)c1COC [E38]
Second: CCN(CC)CCN(CC)C(=O)c1cnn(-c2ncc(C)c(-c3cccs3)n2)c1C1CC1 [E18]
The IC50 of the first is higher: > 67.6 µM for the first, 38.1 µM for the second.

Going from `CCN(CC)CCN(CC)C(=O)c1cnn(-c2nccc(-c3cccs3)n2)c1COC` [E22] to `CCN(CC)CCN(CC)C(=O)c1cnn(-c2nccc(-c3cccs3)n2)c1C(C)C` [E5], the IC50 falls from 54.9 µM to 17.4 µM (3.2-fold).

Compared with `COCCN1CCN(C(=O)c2cnn(-c3ncc(C)c(-c4cccs4)n3)c2C)CC1` [E32], `COCc1c(C(=O)N2CCN(C(C)C)CC2)cnn1-c1ncc(C)c(-c2cccs2)n1` [E21] is lower in IC50: > 67.6 µM for the first, 49.2 µM for the second.

`CN1CCN(C(=O)c2cnn(-c3nccc(-c4cccs4)n3)c2C2CC2)CC1` [E33] and `CCCN1CCN(C(=O)c2cnn(-c3nccc(-c4cccs4)n3)c2C2CC2)CC1` [E58] cannot be ordered by IC50: > 67.6 µM for the first, > 67.6 µM for the second.

Same assay, conditions: Table 7, commercial compounds; read-out: TR-FRET IC50

Going from `CSc1ccc(C2c3c(C)nn(C)c3NC(=O)C2NC(=O)c2cccc(C)c2)cc1` (stereo not shown) [F6] to `Cc1cccc(C(=O)NC2C(=O)Nc3c(c(C)nn3C)C2c2ccc(F)c(Br)c2)c1` (stereo not shown) [F17], the IC50 rises from 39.5 µM to > 67.6 µM. The first is the more potent here.

`COc1ccc(C2c3c(C)nn(C)c3NC(=O)C2NC(=O)c2cccc(C)c2)cc1OC` (stereo not shown) [F14] and `CCCOc1ccc(C2c3c(C)nn(C)c3NC(=O)C2NC(=O)c2cccc(C)c2)cc1OC` (stereo not shown) [F22] cannot be ordered by IC50: > 67.6 µM for the first, > 67.6 µM for the second.

Same assay, conditions: read-out: TR-FRET IC50

Going from `CCCC(C)N1CCC(N(Cc2ccccc2)C(=O)Nc2ccn(-c3ccc(Cl)cc3)n2)CC1` (stereo not shown) [A153] to `CCCC(C)N1CCC(N(Cc2ccccc2)C(=O)Nc2cccc(F)c2Cl)CC1` (stereo not shown) [A168], the IC50 rises from 6.47 µM to 10.6 µM (1.6-fold). The first is the more potent here.

First: CCCC(C)N1CCC(N(Cc2ccccc2)C(=O)Nc2cccc(O)c2)CC1 (stereo not shown) [A177]
Second: CCCC(C)N1CCC(N(Cc2ccccc2)C(=O)Nc2ccc(F)cc2)CC1 (stereo not shown) [A269]
The IC50 of the first is lower: 14.5 µM for the first, > 67.2 µM for the second. The first is the more potent here.

`FC(F)(F)c1cccc(CNC2CCN(Cc3ccccc3)CC2)c1` [B32] and `COc1cccc(NC(=O)NC2CCN(Cc3ccccc3)CC2)c1` [B61] cannot be ordered by IC50: > 55.3 µM for the first, > 67.6 µM for the second.

`Cc1ccc(CN(C(=O)Nc2cc(F)ccc2F)C2CCN(Cc3ccccc3)CC2)o1` [B93] and `COc1ccccc1NC(=O)N(Cc1ccc(C)o1)C1CCN(Cc2ccccc2)CC1` [B90] cannot be ordered by IC50: > 67.6 µM for the first, > 67.6 µM for the second.

Going from `CCN1CCC(NC(=O)Nc2cccc(C(F)(F)F)c2)CC1` [B15] to `CN1CCC(NC(=O)Nc2cccc(C(F)(F)F)c2)CC1` [B100], the IC50 rises from 49.7 µM to > 68.1 µM.

`CC(=O)N1CCC(N(Cc2ccco2)C(=O)Nc2ccc(C)c(C)c2)CC1` [B69] and `CC(=O)N1CCC(N(Cc2ccco2)C(=O)Nc2ccccc2Br)CC1` [B71] cannot be ordered by IC50: > 67.6 µM for the first, > 67.6 µM for the second.

Compared with `CCCC(C)N1CCC(N(Cc2ccccc2)C(=O)Nc2ccccc2C(N)=O)CC1` (stereo not shown) [A257], `CCCC(C)N1CCC(N(Cc2ccccc2)C(=O)Nc2cccc(Cl)c2Cl)CC1` (stereo not shown) [A103] is lower in IC50: > 61.8 µM for the first, 1.74 µM for the second. The second is the more potent here.

First: CCCCN1CCC(N(Cc2ccc3c(c2)OCO3)C(=O)Nc2ccc(F)c(C(F)(F)F)c2)CC1 [A114]
Second: CCCC(C)N1CCC(N(Cc2ccccc2)C(=O)Nc2ccc3c(c2)OCO3)CC1 (stereo not shown) [A86]
The IC50 of the first is 2.4-fold higher: 2.35 µM for the first, 0.991 µM for the second.

`O=C(Nc1ccc(F)cc1)NC1CCN(Cc2ccccc2)CC1` [B43] and `O=C(Nc1ccccc1Cl)NC1CCN(Cc2ccccc2)CC1` [B55] cannot be ordered by IC50: > 64.5 µM for the first, > 67.6 µM for the second.

Going from `CC(=O)N1CCC(N(C(=O)Nc2cccc(C(F)(F)F)c2)C(C)C)CC1` [B65] to `C=CC(=O)NCCCN(C(=O)Nc1cccc(C(F)(F)F)c1)C1CCN(C(C)CCC)CC1` (stereo not shown) [drawing 834], the IC50 falls from > 67.6 µM to 3.33 µM. The second is the more potent here.

`CCCC(C)N1CCC(N(Cc2ccccc2)C(=O)Nc2ccc(OC)cc2F)CC1` (stereo not shown) [A290] and `CCCC(C)N1CCC(N(Cc2ccccc2)C(=O)Nc2ccc(OC)cc2OC)CC1` (stereo not shown) [A197] cannot be ordered by IC50: > 74 µM for the first, > 111 µM for the second.

Going from `O=C(c1cccc(Br)c1)N1CCC(c2nc3cc(Cl)ccc3s2)CC1` [D18] to `O=C(c1ccc(F)cc1Cl)N1CCC(c2nc3ccccc3s2)CC1` [D5], the IC50 falls from > 60.8 µM to 18.2 µM.

Going from `O=C(Nc1cc(F)cc(C(F)(F)F)c1)N(Cc1ccccc1)C1CCN(Cc2ccc(N3CCCC3)cc2)CC1` [A201] to `CCC(C)CN1CCC(N(Cc2ccccc2)C(=O)Nc2cc(F)cc(C(F)(F)F)c2)CC1` (stereo not shown) [A121], the IC50 falls from > 19.1 µM to 1 µM. The second is the more potent here.

Compared with `CCCC(C)N1CCC(N(Cc2ccccc2)C(=O)Nc2ccc(C)cc2Cl)CC1` (stereo not shown) [A175], `CCCC(C)N1CCC(N(Cc2ccccc2)C(=O)Nc2ccc(C(=O)OC)cc2Cl)CC1` (stereo not shown) [A189] is 2.8-fold higher in IC50: 13.6 µM for the first, 37.8 µM for the second. The first is the more potent here.

`CCCN1CCC(NC(=O)Nc2cccc(Cl)c2)CC1` [B117] and `COc1cccc(NC(=O)NC2CCN(C(C)C)CC2)c1` [B60] cannot be ordered by IC50: > 77.1 µM for the first, > 67.6 µM for the second.

`COc1cc(OC)cc(C(=O)N2CCCC(c3nc4ccccc4s3)C2)c1` (stereo not shown) [D30] and `CCOc1cc(C(=O)N2CCCC(c3nc4ccccc4s3)C2)cc(Br)c1OC` (stereo not shown) [D28] cannot be ordered by IC50: > 67.6 µM for the first, > 67.6 µM for the second.

Compared with `CCCCN1CCC(N(Cc2ccccc2)C(=O)Nc2ccc(C)c(Cl)c2)CC1` [A28], `CCCC(C)N1CCC(N(Cc2ccccc2)C(=O)Nc2cc(C)cc(Cl)c2)CC1` (stereo not shown) [A99] is 8.5-fold higher in IC50: 0.166 µM for the first, 1.41 µM for the second. The first is the more potent here.

Going from `CCCCCCc1ccc(NC(=O)N(Cc2ccccc2)C2CCN(C(C)CCC)CC2)cc1` (stereo not shown) [A19] to `CCCC(C)N1CCC(N(Cc2ccccc2)C(=O)Nc2ccc(I)cc2)CC1` (stereo not shown) [A4], the IC50 falls from 0.116 µM to 0.035 µM (3.3-fold). The second is the more potent here.

`CCCC(C)N1CCC(N(Cc2ccccc2)C(=O)Nc2ccc(F)c(-c3nc4ccccc4o3)c2)CC1` (stereo not shown) [A268] and `CCCC(C)N1CCC(N(Cc2ccccc2)C(=O)Nc2ccc([N+](=O)[O-])c(C(F)(F)F)c2)CC1` (stereo not shown) [A237] cannot be ordered by IC50: > 67.1 µM for the first, > 48.4 µM for the second.

`CCCCN(C(=O)Nc1ccc(F)c(C(F)(F)F)c1)C1CCN(C(C)CCC)CC1` (stereo not shown) [A87] and `CCCCN(C(=O)Nc1cc(F)cc(C(F)(F)F)c1)C1CCN(C(C)CCC)CC1` (stereo not shown) [A84] are within 1.5-fold of each other in IC50: 1.01 µM for the first, 0.917 µM for the second.

`O=C(CN1CCN(c2cccc(Cl)c2)CC1)Nc1cccc(C(F)(F)F)c1` [B31] and `COc1ccccc1N1CCN(CC(=O)Nc2cccc(C(F)(F)F)c2)CC1` [B107] cannot be ordered by IC50: > 54.3 µM for the first, > 72.3 µM for the second.

Compared with `CCc1ccccc1NC(=O)N(Cc1ccco1)C1CCN(C(C)=O)CC1` [B74], `CCC(CC)N1CCC(N(Cc2ccccc2)C(=O)Nc2cc(F)cc(C(F)(F)F)c2)CC1` [A120] is lower in IC50: > 67.6 µM for the first, 0.616 µM for the second. The second is the more potent here.

Going from `CCCC(C)N1CCC(N(Cc2cccc(CNC(=O)CCl)c2)C(=O)Nc2cccc(C(F)(F)F)c2)CC1` (stereo not shown) [drawing 847] to `COc1ccc(C(=O)NCC(=O)N2CCC(c3nc4ccccc4s3)CC2)cc1OC` [D26], the IC50 rises from < 0.01 µM to > 67.6 µM. The first is the more potent here.
